Publication PMC7824787, “Design, Synthesis and In Vitro Investigation of Novel Basic Celastrol Carboxamides as Bio-Inspired Leishmanicidal Agents Endowed with Inhibitory Activity against Leishmania Hsp90” (Biomolecules, 2021)
Read-outs that look alike come from different tables or passages of the source.

Columns and labels:
THP-1 = assay: Cytotoxicity on THP-1 (MTT); type: cell-based, human; conditions: read-out: Healthy Cell Lines IC50, THP-1
Method: (§1) Cytotoxicity was evaluated on human microvascular endothelial cells (HMEC-1, provided by the Centers for Disease Control, Atlanta, GA, USA), on immortalized mouse C57Bl/6 bone marrow derived macrophages (BMDM) from wild type lineage (generated in the laboratories of Drs. Douglas Golenbock and Kate Fitzgerald, University of Massachusetts, Worcester, MA, USA) and on a human acute monocytic leukaemia cell line (THP-1).
(§2) HMEC-1 were maintained in MCDB 131 medium (Invitrogen, Milan, Italy) supplemented with 10% fetal calf serum (HyClone), 10 ng/mL of epidermal growth factor, 1 μg/mL of hydrocortisone, 2 mM glutamine and 20 mM HEPES buffer, at 37 °C in 5% CO2. BMDM were maintained in DMEM (Euroclone) medium supplemented with 10% fetal bovine serum (HyClone, Celbio, Milan, Italy), 2 mM glutamine, and 25 mM of HEPES buffer solution (Euroclone). THP-1 were maintained in RPMI supplemented with 10% heat-inactivated FCS, 50 µM 2-mercaptoethanol, 10 µM sodium pyruvate, 20 mM HEPES, and 2 mM glutamine. In order to achieve differentiation into macrophages, cells were treated with 10 ng/mL phorbol myristate acetate (PMA) for 72 h.
(§3) For the cytotoxicity assay, cells were seeded in 96 well flat bottom tissue culture clusters (Costar, New York, NY, USA) at the following concentrations: HMEC 10^5 cell/mL, BMDM at 10^6 cell/mL, THP1 at 5 × 10^5 cell/mL. After 24 h, cells were treated with serial dilutions of test compounds in a final volume of 200 µL/well. Cell proliferation was evaluated after 72 h using the MTT assay.
(§4) The absorbances were measured with a microplate spectrophotometer (Synergy 4-Biotek) at a test wavelength of 550 nm and a reference wavelength of 650 nm. The results are expressed as IC50 as the concentration inhibiting 50% of cell growth. Each IC50 value is the mean and standard deviation of at least three separate experiments performed in duplicate.

L. tropica promastigotes = assay: Antileishmanial activity on L. tropica promastigotes (MTT); type: cell-based
Method: (§5) Promastigote stage of L. infantum (MHOM/TN/80/IPT1, kindly provided by Dr. M. Gramiccia and Dr. T. Di Muccio, ISS, Roma) and L. tropica (MHOM/SY/2012/ISS3130) were cultured in RPMI 1640 medium (EuroClone) supplemented with 15% heat-inactivated fetal calf serum (EuroClone, Milan, Italy), 20 mM HEPES, and 2 mM L-glutamine at 23 °C. The MTT (3-[4.5-dimethylthiazol-2-yl]-2.5-diphenyltetrazolium bromide) method was used to estimate the 50% inhibitory concentration (IC50), with some modifications. Compounds were dissolved in DMSO and then diluted with medium to achieve the required concentrations. Test compounds were placed in 96 wells round bottom microplates and seven serial dilutions made. Amphotericin B was used as the reference antileishmanial drug. Parasites were diluted in complete medium to 5 × 10^6 parasites/mL and 100 μL of the suspension was seeded into the plates and incubated at 23 °C for 72 h. Then 20 μL of MTT solution (5 mg/mL) was added into each well, after 3 h the plates were centrifuged, the supernatants discarded and the resulting pellets dissolved in 100 μL of lysing buffer consisting of 20% (w/v) of a solution of SDS (Sigma), 40% of N,N-dimethylformamide (Merck) in H2O. The absorbance of the obtained solutions was measured at a wavelength of 550 nm with a reference at 650 nm with a microplate spectrophotometer (Synergy 4-Biotek, Milan, Italy) and analyzed with the Gen5® software for data processing.
(§6) The results are expressed as IC50, the dose of compound that is necessary to inhibit cell growth by 50%; each IC50 value is the mean ± standard deviation of at least three separate experiments performed in duplicate.

[1] = test system: L. infantum promastigotes; assay: Antileishmanial activity on L. infantum promastigotes (MTT); type: cell-based
Method: as §5, §6

BMDM = assay: Cytotoxicity on BMDM (MTT); type: cell-based, mouse; conditions: 72 h, read-out: Healthy Cell Lines IC50, BMDM
Method: as §1, §2, §3, §4

LbHsp90 = LbHsp90 (Leishmania braziliensis, UniProt A4HL70); assay: In vitro inhibition of the ATPase activity of LbHsp90 (Malachite Green Phosphate Assay); type: biochemical; conditions: 7 μM LbHsp90, 27 °C, 60 min
Chain of LbHsp90 (A4HL70 entry or part of it): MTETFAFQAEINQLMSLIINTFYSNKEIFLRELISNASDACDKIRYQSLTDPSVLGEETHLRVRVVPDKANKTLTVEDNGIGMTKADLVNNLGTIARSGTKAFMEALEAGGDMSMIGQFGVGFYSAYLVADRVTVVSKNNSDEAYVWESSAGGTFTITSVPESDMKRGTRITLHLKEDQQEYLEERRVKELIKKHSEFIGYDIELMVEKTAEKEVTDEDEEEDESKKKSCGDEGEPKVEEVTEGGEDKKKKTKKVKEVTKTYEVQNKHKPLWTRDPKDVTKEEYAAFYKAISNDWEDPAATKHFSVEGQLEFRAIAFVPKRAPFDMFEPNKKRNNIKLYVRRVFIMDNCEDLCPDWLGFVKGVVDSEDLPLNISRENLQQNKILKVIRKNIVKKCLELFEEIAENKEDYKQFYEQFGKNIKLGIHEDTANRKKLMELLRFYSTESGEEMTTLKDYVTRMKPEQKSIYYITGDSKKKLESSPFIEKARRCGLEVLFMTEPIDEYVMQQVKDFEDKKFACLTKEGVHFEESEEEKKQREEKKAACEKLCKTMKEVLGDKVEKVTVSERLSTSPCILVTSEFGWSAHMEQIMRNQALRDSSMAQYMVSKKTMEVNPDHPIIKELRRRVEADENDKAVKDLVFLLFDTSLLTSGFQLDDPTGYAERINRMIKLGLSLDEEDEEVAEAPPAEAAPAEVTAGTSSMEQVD
From the text: To evaluate in vitro the modulatory activity of CE, PR and CE caboxamides, a full-length recombinant Hsp90 from L. braziliensis (LbHsp90) was produced in E. coli BL21 DE3 harboring the pET28a_LbHsp90 coding for the C-terminal His-tagged target chaperone (genbank number: XP_001567804.1, full sequence is reported in Appendix B). Pratically, the plasmid pET28a_LbHsp90, kindly donated by professor J.C. Borges, was transformed in E. coli BL21 DE3 using the TransformAid Bacterial Transformation Kit (Thermo Fisher, Waltham, MA, USA). Subsequently, the obtained transformants were grown overnight in LB medium containing 30 μg mL^−1 kanamycin (LBkan30) and then inoculated in 1 L SB kan30 medium (Yeast extract 30 g L^−1, Tryptone 20 g L^−1, NaCl 10 g L^−1) at 37 °C and 220 rpm. When the OD600 reached 0.5–1, gene expression was induced by the addition of 2 mL of 1 M IPTG solution in water and the culture was shifted at 30 °C for 24 h. After cell harvesting by centrifugation (5000 rpm for 30 min), the cell pellet was resuspended in 20 mL of wash buffer (20 mM HEPES buffer, pH 7.0, 500 mM NaCl, 20 mM imidazole) and recombinant E. coli BL21DE3 cells were disrupted by ultrasonication. LbHsp90 was subsequently purified using a Nickel Sepharose 6 Fast Flow agarose resin (Ni-NTA) (GE Healthcare, Milan, Italy) as follows. Soluble protein fraction was separated from cell debris by centrifugation (10,000 rpm for 30min) after cell ultrasonication, and clear lysates were incubated with the Ni-NTA resin for 90 min at 4 °C under mild shaking and loaded onto a glass column (10 × 110 mm). The resin was then washed with 10mL of wash buffer and His-tagged LbHsp90 was eluted using a 3 step gradient (10 mL washing buffer containing 100, 200, and 300 mM imidazole, respectively) and dialyzed against 20 mM HEPES buffer (20 mM, pH 7.5), at 4 °C overnight. The protein content was measured using the Bio-Rad Protein Assay (Hercules, CA, USA) according to the Bradford method and the protein purity was verified by SDS-PAGE analysis (10% T, 2.6% C). It is worth noting that to avoid interferences with the assays described below, proteins were purified and conserved in HEPES buffer (20 mM, pH 7.5) in place of the standard PB-buffer. Reported data are the mean of two experiments run in duplicate.
Modulatory activity toward the ATPase cycle of LbHsp90 was determined using a Malachite Green Phosphate Assay Kit (Catalog Number MAK307, Sigma-Aldrich®, St. Louis, MO, USA). Analyses were run in a 96-well plate directly following the quantitative formation of a green complex between Malachite Green, molybdate, and free orthophosphate (Pi) produced by ATP hydrolysis catalyzed by the chaperone. Color formation from the reaction was measured on a plate reader at 620 nm. Briefly, the IC50 of CE and its derivatives were extrapolated from a set of dose-response curves obtained by calculating the amount of Pi produced by LbHsp90 in the presence of different compounds concentrations.
Reactions were run in HEPES buffer (20 mM, pH 7.5) containing 3 mM MgCl2 and 50 mM KCl in the presence of different compounds concentrations ([…]), LbHsp90 (7 μM) and ATP (25 mM) at 27 °C for 60 min. OD620 was measured 30 min after Malachite Green reactants addition.
LbHsp90 native activity was measured by conducting the reaction in the presence of just LbHsp90 and ATP and extrapolating the concentration of Pi obtained.
Three sets of control experiments, (1) ATP background hydrolysis, (2) compounds-related interferences and (3) protein-related background coloration, were run as follow: • (1) ATP (25 mM) incubated at 27 °C for 60 min • (2) Compounds (different concentrations) incubated with ATP (25 mM) at 27 °C for 60 min • (3) LbHsp90 (7 μM) at 27 °C for 60 min
The in vitro performances of CE, PR and the carboxamides 1–11 (Figure 4) as potential inhibitors of the Leishmania braziliensis Hsp90 were investigated using Sigma-Aldrich® Malachite Green Phosphate Assay Kit. […]

HMEC-1 = assay: Cytotoxicity on HMEC-1 (MTT); type: cell-based, human; conditions: 72 h, MTT, read-out: Healthy Cell Lines IC50, HMEC-1
Method: as §1, §2, §3, §4

[2] = Homo sapiens, THP-1, PMA-differentiated, 72 h, MTT
[3] = Leishmania tropica, 72 h, 23 °C, MTT, read-out: Leishmania Promastigotes IC50, L. tropica
[4] = Leishmania infantum, 72 h, 23 °C, MTT, read-out: Leishmania Promastigotes IC50, L. infantum
[5] = 72 h, 23 °C, MTT; read-out: Leishmania Promastigotes IC50, L. tropica

Molecule	IC50 (THP-1; [2])	IC50 (LbHsp90)	IC50 (L. tropica promastigotes; [3])	melting point	IC50 [1, 4]	IC50 (BMDM; Mus musculus, BMDM, MTT)	IC50 (HMEC-1; Homo sapiens, HMEC-1)	IC50 (L. tropica promastigotes; [5])	other results
COC(=O)[C@]1(C)CC[C@]2(C)CC[C@]3(C)C4=CC=C5C(=CC(=O)C(O)=C5C)[C@]4(C)CC[C@@]3(C)[C@@H]2C1 [PR, pristimerin, reference compound]									IC50 (THP-1; Homo sapiens, THP-1, 72 h): 1100 ± 350 nM; IC50 (L. tropica promastigotes; Leishmania tropica, 72 h, read-out: Leishmania Promastigotes IC50, L. tropica): 240 ± 40 nM; IC50 ([1]; Leishmania infantum, 72 h, read-out: Leishmania Promastigotes IC50, L. infantum): 260 ± 20 nM; IC50 (BMDM; Mus musculus, BMDM): 1270 ± 90 nM
CC1=C(O)C(=O)C=C2C1=CC=C1[C@@]2(C)CC[C@@]2(C)[C@@H]3C[C@](C)(C(=O)NCCCN4CCCCC4)CC[C@]3(C)CC[C@]12C [compound 2, (2R,4aS,6aS,12bR,14aS,14bR)-10-hydroxy-2,4a,6a,9,12b,14a-hexamethyl-11-oxo-N-(3-(piperidin-1-yl)propyl)-1,2,3,4,4a,5,6,6a,11,12b,13,14,14a,14b-tetradecahydropicene-2-carboxamide]	1780 ± 480 nM	> 125000 nM							IC50 (L. tropica promastigotes; Leishmania tropica; 72 h, 23 °C, MTT; read-out: Leishmania Promastigotes IC50, L. tropica): 210 ± 40 nM; IC50 ([1]; Leishmania infantum; 72 h, 23 °C, MTT; read-out: Leishmania Promastigotes IC50, L. infantum): 260 ± 60 nM
CC1=C(O)C(=O)C=C2C1=CC=C1[C@@]2(C)CC[C@@]2(C)[C@@H]3C[C@](C)(C(=O)NCCC45CCCN4CCC5)CC[C@]3(C)CC[C@]12C [compound 4, (2R,4aS,6aS,12bR,14aS,14bR)-N-(2-(hexahydro-1H-pyrrolizin-7a-yl)ethyl)-10-hydroxy-2,4a,6a,9,12b,14a-hexamethyl-11-oxo-1,2,3,4,4a,5,6,6a,11,12b,13,14,14a,14b-tetradecahydropicene-2-carboxamide]	1890 ± 430 nM	48000 ± 3000 nM	200 ± 40 nM	235.7 to 237 °C	250 ± 80 nM	2590 ± 710 nM	350 ± 160 nM		
CC1=C(O)C(=O)C=C2C1=CC=C1[C@@]2(C)CC[C@@]2(C)[C@@H]3C[C@](C)(C(=O)NCCCNc4ccnc5cc(Cl)ccc45)CC[C@]3(C)CC[C@]12C [compound 7, (2R,4aS,6aS,12bR,14aS,14bR)-N-(3-((7-chloroquinolin-4-yl)amino)propyl)-10-hydroxy-2,4a,6a,9,12b,14a-hexamethyl-11-oxo-1,2,3,4,4a,5,6,6a,11,12b,13,14,14a,14b-tetradecahydropicene-2-carboxamide]	480 ± 170 nM	> 125000 nM	150 ± 40 nM	211.1 to 215 °C	200 ± 10 nM	1780 ± 530 nM	130 ± 10 nM		
CC1=C(O)C(=O)C=C2C1=CC=C1[C@@]2(C)CC[C@@]2(C)[C@@H]3C[C@](C)(C(=O)NCSS(C)(=O)=O)CC[C@]3(C)CC[C@]12C [compound 8, S-(((2R,4aS,6aS,12bR,14aS,14bR)-10-hydroxy-2,4a,6a,9,12b,14a-hexamethyl-11-oxo-1,2,3,4,4a,5,6,6a,11,12b,13,14,14a,14b-tetradecahydropicene-2-carboxamido)methyl) methanesulfonothioate]	2510 ± 870 nM	67000 ± 3000 nM	2000 to 4000 nM			13900 ± 2780 nM	3030 ± 10 nM	3440 ± 1120 nM	
(6bS,8aS,11R,12aR,12bS,14aR)-3-hydroxy-4,6b,8a,11,12b,14a-hexamethyl-11-(((((2R,3R,4R,5S,6R)-2,4,5-trihydroxy-6-(hydroxymethyl)tetrahydro-2H-pyran-3-yl)amino)oxy)carbonyl)-7,8,8a,9,10,11,12,12a,12b,13,14,14a-dodecahydropicen-2(6bH)-one [compound 11]		47000 ± 5000 nM						15200 ± 2710 nM	IC50 (THP-1; PMA-differentiated, 72 h, MTT): > 15900 nM; IC50 ([1]; 72 h, 23 °C, MTT; read-out: Leishmania Promastigotes IC50, L. infantum): 14400 ± 1960 nM; IC50 (BMDM; MTT): > 15900 nM; IC50 (HMEC-1): > 14200 nM
